PubChem BioAssay AID256 (DTP/NCI, 2004)
“And” between values parts separate entries of the source, which are not always exact repeats. Equal values may be shown once. Inconclusive results and toxic doses are left out. Rule for the calls: active = survival T/C of 150% or more; inactive = T/C below 125% in these data.

Tested on: CD2F1 mice, L1210 leukemia ip, survival T/C
Test: NCI In Vivo Anticancer Drug Screen. Data for tumor model L1210 Leukemia (intraperitoneal) in CD2F1 (CDF1) mice
Conditions: higher = longer survival
Procedure, shortened: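 Ratio T/C, where T is the treated-group value and C the vehicle-dosed control value, from mice implanted with a transplantable tumor.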

[1] = endpoint: mean survival time, dose: 50.0 mg/kg/injection, schedule: Q01DX009 (ip), vehicle: Klucel (hydroxypropylcellulose) (HPC)
[2] = endpoint: mean survival time, dose: 100.0 mg/kg/injection, schedule: Q01DX009 (ip), vehicle: Klucel (hydroxypropylcellulose) (HPC)
[3] = endpoint: mean survival time, dose: 100.0 mg/kg/injection, schedule: Q01DX009 (ip), vehicle: saline with Tween-80
[4] = endpoint: mean survival time, dose: 100.0 mg/kg/injection, schedule: Q04DX003 (ip), vehicle: saline with Tween-80
[5] = endpoint: mean survival time, dose: 200.0 mg/kg/injection, schedule: Q01DX009 (ip), vehicle: saline with Tween-80
[6] = endpoint: mean survival time, dose: 200.0 mg/kg/injection, schedule: Q04DX003 (ip), vehicle: saline with Tween-80
[7] = endpoint: mean survival time, dose: 400.0 mg/kg/injection, schedule: Q01DX009 (ip), vehicle: saline with Tween-80
[8] = endpoint: mean survival time, dose: 400.0 mg/kg/injection, schedule: Q04DX003 (ip), vehicle: saline with Tween-80
[9] = endpoint: mean survival time, dose: 100.0 mg/kg/injection, schedule: Q01DX001 (ip), vehicle: saline
[10] = endpoint: mean survival time, dose: 200.0 mg/kg/injection, schedule: Q01DX001 (ip), vehicle: saline
[11] = endpoint: mean survival time, dose: 100.0 mg/kg/injection, schedule: Q01DX001 (ip), vehicle: saline with Tween-80
[12] = endpoint: mean survival time, dose: 400.0 mg/kg/injection, schedule: Q01DX001 (ip), vehicle: saline with Tween-80
[13] = endpoint: mean survival time, dose: 75.0 mg/kg/injection, schedule: Q01DX001 (ip), vehicle: saline
[14] = endpoint: mean survival time, dose: 150.0 mg/kg/injection, schedule: Q01DX001 (ip), vehicle: saline
[15] = endpoint: mean survival time, dose: 200.0 mg/kg/injection, schedule: Q01DX009 (ip), vehicle: Klucel (hydroxypropylcellulose) (HPC)
[16] = endpoint: mean survival time, dose: 200.0 mg/kg/injection, schedule: Q01DX001 (ip), vehicle: saline with Tween-80

Measured: T/C

C[N+]([O-])(CCO)Cc1ccccc1 (stereo unspecified)
inactive: endpoint: mean survival time, dose: 50.0 mg/kg/injection, schedule: Q01DX001 (ip), vehicle: carboxymethylcellulose (CMC) 102 % of control | endpoint: mean survival time, dose: 100.0 mg/kg/injection, schedule: Q01DX001 (ip), vehicle: carboxymethylcellulose (CMC) 112 % of control | endpoint: mean survival time, dose: 200.0 mg/kg/injection, schedule: Q01DX001 (ip), vehicle: carboxymethylcellulose (CMC) 112 % of control | endpoint: mean survival time, dose: 400.0 mg/kg/injection, schedule: Q01DX001 (ip), vehicle: carboxymethylcellulose (CMC) 112 % of control

Nc1ncnc2c1ncn2C1OC(CCC(=O)NCCc2c[nH]c3ccccc23)C(O)C1O (stereo unspecified)
inactive: endpoint: median survival time, dose: 10.63 mg/kg/injection, schedule: Q01DX005 (ip), vehicle: distilled water + Tween-80 101 % of control | endpoint: median survival time, dose: 21.25 mg/kg/injection, schedule: Q01DX005 (ip), vehicle: distilled water + Tween-80 102 % of control | endpoint: median survival time, dose: 42.5 mg/kg/injection, schedule: Q01DX005 (ip), vehicle: distilled water + Tween-80 97 % of control | endpoint: median survival time, dose: 85.0 mg/kg/injection, schedule: Q01DX005 (ip), vehicle: distilled water + Tween-80 96 % of control | endpoint: median survival time, dose: 170.0 mg/kg/injection, schedule: Q01DX005 (ip), vehicle: distilled water + Tween-80 101 % of control

Cc1ccc(Cc2cc(=O)[nH]c(=O)[nH]2)cc1
inactive: endpoint: mean survival time, dose: 25.0 mg/kg/injection, schedule: Q01DX009 (ip), vehicle: Klucel (hydroxypropylcellulose) (HPC) 96 % of control | [1] 100 % of control | [2] 94 % of control and 96 % of control

O=C(Oc1cccc(O)c1)c1ccccc1
inactive: [3] 104 % of control | [4] 89 % of control | [5] 100 % of control | [6] 92 % of control | [7] 96 % of control | [8] 101 % of control

CCCCCCCCCC(O)CCCCCCCCC
inactive: endpoint: mean survival time, dose: 100.0 mg/kg/injection, schedule: Q01DX009 (ip), vehicle: other 102 % of control | endpoint: mean survival time, dose: 100.0 mg/kg/injection, schedule: Q04DX003 (ip), vehicle: other 103 % of control | endpoint: mean survival time, dose: 200.0 mg/kg/injection, schedule: Q01DX009 (ip), vehicle: other 91 % of control | endpoint: mean survival time, dose: 200.0 mg/kg/injection, schedule: Q04DX003 (ip), vehicle: other 94 % of control | endpoint: mean survival time, dose: 400.0 mg/kg/injection, schedule: Q01DX009 (ip), vehicle: other 91 % of control | endpoint: mean survival time, dose: 400.0 mg/kg/injection, schedule: Q04DX003 (ip), vehicle: other 94 % of control

O=C1CCSc2ccccc21
inactive: endpoint: mean survival time, dose: 75.0 mg/kg/injection, schedule: Q01DX009 (ip), vehicle: saline with Tween-80 95 % of control | [4] 104 % of control | endpoint: mean survival time, dose: 100.0 mg/kg/injection, schedule: Q04DX003 (ip), vehicle: saline 100 % of control | endpoint: mean survival time, dose: 150.0 mg/kg/injection, schedule: Q01DX009 (ip), vehicle: saline with Tween-80 102 % of control | [6] 101 % of control | endpoint: mean survival time, dose: 200.0 mg/kg/injection, schedule: Q04DX003 (ip), vehicle: saline 100 % of control | endpoint: mean survival time, dose: 300.0 mg/kg/injection, schedule: Q01DX009 (ip), vehicle: saline with Tween-80 96 % of control | [8] 102 % of control | endpoint: mean survival time, dose: 400.0 mg/kg/injection, schedule: Q04DX003 (ip), vehicle: saline 100 % of control

O=P(OCCCl)(OCCCl)C(Cl)(Cl)Cl
inactive: [9] 103 % of control | [10] 102 % of control | endpoint: mean survival time, dose: 400.0 mg/kg/injection, schedule: Q01DX001 (ip), vehicle: saline 103 % of control

COC1OC(CO)C(OC(=O)Nc2ccccc2)C(OC(=O)Nc2ccccc2)C1O (stereo unspecified)
inactive: [11] 87 % of control | [12] 95 % of control

Cc1ccc2cccc(CC(=O)O)c2c1
inactive: endpoint: mean survival time, dose: 100.0 mg/kg/injection, schedule: Q04DX002 (ip), vehicle: saline with Tween-80 102 % of control | endpoint: mean survival time, dose: 200.0 mg/kg/injection, schedule: Q04DX002 (ip), vehicle: saline with Tween-80 98 % of control | endpoint: mean survival time, dose: 400.0 mg/kg/injection, schedule: Q04DX002 (ip), vehicle: saline with Tween-80 91 % of control

NNc1nc(=O)[nH]nc1SCc1ccccc1
inactive: [13] 96 % of control | [14] 88 % of control

O=C(Nc1ccc2c(c1)OCO2)O/N=C1\C(=O)Nc2ccccc21
inactive: [4] 100 % of control | [6] 86 % of control

CC(=O)O.[Ni]
inactive: endpoint: mean survival time, dose: 40.0 mg/kg/injection, schedule: Q01DX001 (ip), vehicle: saline 118 % of control

CCC(c1ccccc1)C(CC)c1ccc(N(C)C)cc1 (stereo unspecified)
inactive: [1] 95 % of control | [2] 94 % of control | [15] 91 % of control | endpoint: mean survival time, dose: 400.0 mg/kg/injection, schedule: Q01DX009 (ip), vehicle: Klucel (hydroxypropylcellulose) (HPC) 97 % of control

CCOC(=O)C(CC)(C(=O)OCC)c1c(Cl)c(=O)oc2ccc(Cl)cc12
inactive: [11] 100 % of control | [16] 97 % of control | [12] 91 % of control

CC(C)(O)C(=O)N/N=C/c1ccc(Cl)cc1
inactive: [3] 90 % of control | [5] 90 % of control

N#CC(/C=C/c1ccccc1)Nc1ccccc1CO (stereo unspecified)
inactive: [4] 97 % of control | [6] 105 % of control | [8] 117 % of control

O=C(N/N=C/c1ccccc1)c1nn[nH]n1
inactive: [11] 96 % of control | [16] 88 % of control | [12] 88 % of control

CSc1nc(=O)[nH]nc1Sc1ccccc1
inactive: [13] 102 % of control | [14] 101 % of control

CCc1ccccc1NC(=O)c1cccc(Cl)c1
inactive: [3] 98 % of control | [4] 94 % of control | [5] 91 % of control | [6] 96 % of control | [7] 96 % of control | [8] 96 % of control

CCn1c(=O)c2[nH]c(Cl)nc2n(CC)c1=O
inactive: endpoint: mean survival time, dose: 25.0 mg/kg/injection, schedule: Q04DX003 (ip), vehicle: Klucel (hydroxypropylcellulose) (HPC) 102 % of control | endpoint: mean survival time, dose: 50.0 mg/kg/injection, schedule: Q04DX003 (ip), vehicle: Klucel (hydroxypropylcellulose) (HPC) 105 % of control | endpoint: mean survival time, dose: 100.0 mg/kg/injection, schedule: Q04DX003 (ip), vehicle: Klucel (hydroxypropylcellulose) (HPC) 107 % of control

CCCOC(=O)OCCC
inactive: endpoint: mean survival time, dose: 25.0 mg/kg/injection, schedule: Q04DX003 (ip), vehicle: saline with Tween-80 102 % of control | endpoint: mean survival time, dose: 50.0 mg/kg/injection, schedule: Q04DX003 (ip), vehicle: saline with Tween-80 96 % of control | [3] 97 % of control | [4] 94 % of control | [5] 95 % of control | [6] 94 % of control | [7] 104 % of control | [8] 96 % of control

CCC[CH2][Sn]1([CH2]CCC)[N](S(=O)(=O)c2ccc(C)cc2)c2ccccc2[N]1S(=O)(=O)c1ccc(C)cc1
inactive: endpoint: mean survival time, dose: 3.13 mg/kg/injection, schedule: Q04DX002 (ip), vehicle: saline with Tween-80 94 % of control | endpoint: mean survival time, dose: 6.25 mg/kg/injection, schedule: Q04DX002 (ip), vehicle: saline with Tween-80 102 % of control | endpoint: mean survival time, dose: 12.5 mg/kg/injection, schedule: Q04DX002 (ip), vehicle: saline with Tween-80 94 % of control

CN(CC(=O)O)C(=N)N
inactive: endpoint: mean survival time, dose: 250.0 mg/kg/injection, schedule: Q01DX Z (ip), vehicle: saline 96 % of control | endpoint: mean survival time, dose: 500.0 mg/kg/injection, schedule: Q01DX Z (ip), vehicle: saline 96 % of control | endpoint: mean survival time, dose: 1000.0 mg/kg/injection, schedule: Q01DX Z (ip), vehicle: saline 100 % of control

O=C(SC1=NCCN1)c1ccccc1
inactive: [9] 94 % of control | [10] 102 % of control

O=c1ccc2ccccc2o1
inactive: [1] 100 % of control | [2] 96 % of control | [15] 96 % of control
